Measurements published in patent US9169243B2, “Apoptosis signal-regulating kinase inhibitors” (Gilead Sciences, Inc., priority 2013, dated 2015).

biological target: recombinant human ASK1 kinase (Homo sapiens (Human), UniProt Q99683); assay: TR-FRET ASK1 (Apoptosis Signal-Regulating Kinase 1) kinase assay; format: biochemical; details: TR-FRET/HTRF, 4 nM ASK1, 1 μM STK3 peptide substrate, 100 μM ATP, 3 hr; average of quadruplicate determination
Excerpt: I. TR-FRET ASK1 (Apoptosis Signal-Regulating Kinase 1) Kinase Assay
To evaluate the inhibitory activity of compounds of the invention against ASK1 (Apoptosis Signal-regulating Kinase 1) kinase, its activity was examined using a TR-FRET ASK1 kinase assay which determined the amount of phosphate transferred to a peptide substrate from ATP.
Dephosphorylated recombinant human ASK1 kinase was from Gilead Sciences. Small molecule kinase inhibitor staurosporine (Catalogue #S6942) and dithiothreitol (DTT, catalogue #43815-5G) were obtained from Sigma Chemicals (St. Louis, Mo.). ATP (catalogue #7724) was from Affymetrix (Santa Clara, Calif.) and test compounds were from Gilead Sciences. HTRF KinEASE™-STK S3 kit was obtained from Cisbio (Bedford, Mass.). All other reagents were of the highest grade commercially available.
The assay measures the phosphorylation level of a biotinylated peptide substrate by the ASK1 kinase using HTRF detection. This is a competitive, time-resolved fluorescence resonance energy transfer (TR-FRET) immunoassay, based on HTRF® KinEASE™-STK manual from Cisbio. Test compound, 1 μM STK3 peptide substrate, 4 nM of ASK1 kinase were incubated with 10 mM MOP buffer, pH. 7.0 containing 10 mM Mg-acetate, 0.025% NP-40, 1 mM DTT, 0.05% BSA and 1.5% glycerol for 30 minutes then 100 μM ATP was added to start the kinase reaction and incubated for 3 hr. Peptide antibody labeled with 1×Eu^3+ Cryptate buffer containing 10 mM EDTA and 125 nM Streptavidin XL665 were added to stop the reaction and phosphorylated peptide substrate was detected using Envision 2103 Multilabeled reader from PerkinElmer. The fluorescence was measured at 615 nm (Cryptate) and 665 nm (XL665) and a ratio of 665 nm/615 nm was calculated for each well. The resulting TR-FRET level (a ratio of 665 nm/615 nm) was proportional to the phosphorylation level. Under these assay conditions, the degree of phosphorylation of peptide substrate was linear with time and concentration for the enzyme. The assay system yielded consistent results with regard to Km and specific activities for the enzyme. For inhibition experiments (IC50 values), activities were performed with constant concentrations of ATP, peptide and several fixed concentrations of inhibitors. Staurosporine, the nonselective kinase inhibitor, was used as the positive control. All enzyme activity data are reported as an average of quadruplicate determination.
The IC50 values were calculated following equation: y=Range/{1+(x/IC50)^s}+Background where x and y represent the concentration of inhibitors and enzyme activity, respectively. Enzyme activity is expressed as the amount of Phosphate incorporated into substrate peptide from ATP. Range is the maximum y range (no inhibitor, DMSO control) and s is a slope factor.

recombinant human ASK1 kinase, sequence (Q99683 whole entry): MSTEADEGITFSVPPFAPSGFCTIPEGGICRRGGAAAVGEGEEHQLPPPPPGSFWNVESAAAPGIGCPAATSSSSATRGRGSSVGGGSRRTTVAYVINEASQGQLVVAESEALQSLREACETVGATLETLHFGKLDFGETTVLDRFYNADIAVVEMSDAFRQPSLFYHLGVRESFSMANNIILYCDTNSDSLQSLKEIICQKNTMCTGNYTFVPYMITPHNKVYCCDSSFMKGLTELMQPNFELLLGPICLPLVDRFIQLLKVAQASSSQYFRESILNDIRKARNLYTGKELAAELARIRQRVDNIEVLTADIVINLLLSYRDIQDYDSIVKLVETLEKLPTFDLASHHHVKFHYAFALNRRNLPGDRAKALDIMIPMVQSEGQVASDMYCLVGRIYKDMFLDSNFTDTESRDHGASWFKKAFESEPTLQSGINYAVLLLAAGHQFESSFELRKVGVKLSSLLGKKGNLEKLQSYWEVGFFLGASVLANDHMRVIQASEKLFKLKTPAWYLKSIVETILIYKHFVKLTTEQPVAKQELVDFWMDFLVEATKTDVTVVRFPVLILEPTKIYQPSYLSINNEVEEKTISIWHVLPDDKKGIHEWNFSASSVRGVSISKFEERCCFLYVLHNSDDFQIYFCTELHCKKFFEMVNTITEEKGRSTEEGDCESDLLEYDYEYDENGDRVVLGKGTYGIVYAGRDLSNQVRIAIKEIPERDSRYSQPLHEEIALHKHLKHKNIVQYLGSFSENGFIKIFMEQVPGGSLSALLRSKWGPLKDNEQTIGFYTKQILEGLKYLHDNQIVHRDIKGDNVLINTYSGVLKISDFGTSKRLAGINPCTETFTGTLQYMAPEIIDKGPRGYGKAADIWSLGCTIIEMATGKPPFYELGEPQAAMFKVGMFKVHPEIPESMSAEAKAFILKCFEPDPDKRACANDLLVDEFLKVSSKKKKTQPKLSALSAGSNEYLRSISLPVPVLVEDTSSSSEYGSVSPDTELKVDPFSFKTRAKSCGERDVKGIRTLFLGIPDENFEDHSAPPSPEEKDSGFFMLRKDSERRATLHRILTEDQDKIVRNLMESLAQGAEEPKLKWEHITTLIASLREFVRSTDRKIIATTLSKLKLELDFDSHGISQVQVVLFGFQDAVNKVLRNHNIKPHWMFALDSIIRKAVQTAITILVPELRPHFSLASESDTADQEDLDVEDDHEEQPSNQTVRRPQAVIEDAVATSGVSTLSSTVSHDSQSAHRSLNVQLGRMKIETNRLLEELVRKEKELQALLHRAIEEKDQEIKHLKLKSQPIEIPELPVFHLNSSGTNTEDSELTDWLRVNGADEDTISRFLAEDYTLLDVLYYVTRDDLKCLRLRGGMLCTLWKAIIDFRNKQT

Row | IC50 | Compound
1 | 1.1 nM | O=C(Nc1csc(-c2nncn2C2CC2)n1)c1cc(-n2cnc(C3CC3)c2)c(N2CC3CC3C2)cn1 (centres unmarked) [Compound 17, 5-(3-azabicyclo[3.1.0]hexan-3-yl)-4-(4-cyclopropylimidazol-1-yl)-N-[2-(4-cyclopropyl-1,2,4-triazol-3-yl)-3,3-thiazol-4-yl]pyridine-2-carboxamide]
2 | 1.9 nM | C[C@H](n1cnnc1-c1nc(NC(=O)c2cc(-n3cnc(C4CC4)c3)c(N3CC(N4CCOCC4)C3)cn2)cs1)C(F)(F)F [Compound 41, (S)-4-(4-cyclopropyl-1H-imidazol-1-yl)-5-(3-morpholinoazetidin-1-yl)-N-(2-(4-(1,1,1-trifluoropropan-2-yl)-4H-1,2,4-triazol-3-yl)thiazol-4-yl)picolinamide]
3 | 2.8 nM | O=C(Nc1csc(-c2nncn2C2CC2)n1)c1cc(-n2cnc(C3CC3)c2)c(N2CC(F)(F)C2)cn1 [Compound 5, 4-(4-cyclopropylimidazol-1-yl)-N-[2-(4-cyclopropyl-1,2,4-triazol-3-yl)-1,3-thiazol-4-yl]-5-(3,3-difluoroazetidin-1-yl)pyridine-2-carboxamide]
4 | 2.1 nM | C[C@H](n1cnnc1-c1nc(NC(=O)c2cc(-n3cnc(C4CC4)c3)c(N3CCC4(CC3)COC4)cn2)cs1)C(F)(F)F [Compound 44, (S)-4-(4-cyclopropyl-1H-imidazol-1-yl)-5-(2-oxa-7-azaspiro[3.5]nonan-7-yl)-N-(2-(4-(1,1,1-trifluoropropan-2-yl)-4H-1,2,4-triazol-3-yl)thiazol-4-yl)picolinamide]
5 | 2.2 nM | C[C@H](n1cnnc1-c1nc(NC(=O)c2cc(-n3cnc(C4CC4)c3)c(N3CC4CC4C3)cn2)cs1)C(F)(F)F (stereo partly drawn) [Compound 40, 5-(3-azabicyclo[3.1.0]hexan-3-yl)-4-(4-cyclopropyl-1H-imidazol-1-yl)-N-(2-(4-((S)-1,1,1-trifluoropropan-2-yl)-4H-1,2,4-triazol-3-yl)thiazol-4-yl)picolinamide]
6 | 4.5 nM | O=C(Nc1csc(-c2nncn2C2CC2)n1)c1cc(-n2cnc(C3CC3)c2)c(N2CC3(CCOCC3)C2)cn1 [Compound 22, 4-(4-cyclopropylimidazol-1-yl)-N-[2-(4-cyclopropyl-1,2,4-triazol-3-yl)-1,3-thiazol-4-yl]-5-(7-oxa-2-azaspiro[3.5]nonan-2-yl)pyridine-2-carboxamide]
7 | 3.2 nM | O=C(Nc1csc(-c2nncn2C2CC2)n1)c1cc(-n2cnc(C3CC3)c2)c(N2CCC(C(F)(F)F)CC2)cn1 [Compound 7, 4-(4-cyclopropylimidazol-1-yl)-N-[2-(4-cyclopropyl-1,2,4-triazol-3-yl)-1,3-thiazol-4-yl]-5-[4-(trifluoromethyl)piperidin-1-yl]pyridine-2-carboxamide]
8 | 2.2 nM | N#CC1CCN(c2cnc(C(=O)Nc3csc(-c4nncn4C4CC4)n3)cc2-n2cnc(C3CC3)c2)CC1 [Compound 9, 5-(4-cyanopiperidin-1-yl)-4-(4-cyclopropylimidazol-1-yl)-N-[2-(4-cyclopropyl-1,2,4-triazol-3-yl)-1,3-thiazol-4-yl]pyridine-2-carboxamide]
9 | 2.7 nM | O=C(Nc1csc(-c2nncn2C2CC2)n1)c1cc(-n2cnc(C3CC3)c2)c(N2CCN3C(=O)OCC3C2)cn1 (centres unmarked) [Compound 16, 4-(4-cyclopropylimidazol-1-yl)-N-[2-(4-cyclopropyl-l,2,4-triazol-3-yl)-1,3-thiazol-4-yl]-5-(3-oxo-5,6,8,8a-tetrahydro-1H-[1,3]oxazolo[3,4-a]pyrazin-7-yl)pyridine-2-carboxamide]
10 | 1.9 nM | O=C(Nc1csc(-c2nncn2C2CC2)n1)c1cc(-n2cnc(C3CC3)c2)c(N2CCC3(CC2)COC3)cn1 [Compound 21, 4-(4-cyclopropylimidazol-1-yl)-N-[2-(4-cyclopropyl-1,2,4-triazol-3-yl)-1,3-thiazol-4-yl]-5-(2-oxa-7-azaspiro[3.5]nonan-7-y!)pyridine-2-carboxamide]
11 | 1.8 nM | C[C@H](n1cnnc1-c1nc(NC(=O)c2cc(-n3cnc(C4CC4)c3)c(N3CCN(CC4CC4)CC3)cn2)cs1)C(F)(F)F [Compound 43, (S)-4-(4-cyclopropyl-1H-imidazol-1-yl)-5-(4-(cyclopropylmethyl)piperazin-1-yl)-N-(2-(4-(1,1,1-trifluoropropan-2-yl)-4H-1,2,4-triazol-3-yl)thiazol-4-yl)picolinamide]
12 | 2 nM | COCC1CN(c2cnc(C(=O)Nc3csc(-c4nncn4[C@@H](C)C(F)(F)F)n3)cc2-n2cnc(C3CC3)c2)C1 [Compound 23, (S)-4-(4-cyclopropyl-1H-imidazol-1-yl)-5-(3-(methoxymethyl)azetidin-1-yl)-N-(2-(4-(1,1,1-trifluoropropan-2-yl)-4H-1,2,4-triazol-3-yl)thiazol-4-yl)picolinamide]
13 | 2.3 nM | O=C(Nc1csc(-c2nncn2C2CC2)n1)c1cc(-n2cnc(C3CC3)c2)c(N2CC(N3CCOCC3)C2)cn1 [Compound 18, 4-(4-cyclopropylimidazol-1-yl)-N-[2-(4-cyclopropyl-1,2,4-triazol-3-yl)-1,3-thiazol-4-yl]-5-(3-morpholin-4-ylazetidin-1-yl)pyridine-2-carboxamide]
14 | 2 nM | COC1(C)CN(c2cnc(C(=O)Nc3csc(-c4nncn4[C@@H](C)C(F)(F)F)n3)cc2-n2cnc(C3CC3)c2)C1 [Compound 25, (S)-4-(4-cyclopropyl-1H-imidazol-1-yl)-5-(3-methoxy-3-methylazetidin-1-yl)-N-(2-(4-(1,1,1-trifluoropropan-2-yl)-4H-1,2,4-triazol-3-yl)thiazol-4-yl)picolinamide]
15 | 0.4 nM | CNC(=O)C1CCN(c2cnc(C(=O)Nc3csc(-c4nncn4C4CC4)n3)cc2-n2cnc(C3CC3)c2)CC1 [Compound 11, 4-(4-cyclopropylimidazol-1-yl)-N-[2-(4-cyclopropyl-1,2,4-triazol-3-yl)-1,3-thiazol-4-yl]-5-[4-(methylcarbamoyl)piperidin-1-yl]pyridine-2-carboxamide]
16 | 2.3 nM | CNC(=O)C1CCN(c2cnc(C(=O)Nc3csc(-c4nncn4[C@@H](C)C(F)(F)F)n3)cc2-n2cnc(C3CC3)c2)CC1 [Compound 31, (S)-4-(4-cyclopropyl-1H-imidazol-1-yl)-5-(4-(methylcarbamoyl)piperidin-1-yl)-N-(2-(4-(1,1,1-trifluoropropan-2-yl)-4H-1,2,4-triazol-3-yl)thiazol-4-yl)picolinamide]
17 | 2.8 nM | COC1CCN(c2cnc(C(=O)Nc3csc(-c4nncn4C4CC4)n3)cc2-n2cnc(C3CC3)c2)C1 (centres unmarked) [Compound 6, 4-(4-cyclopropylimidazol-1-yl)-N-[2-(4-cyclopropyl-1,2,4-triazol-3-yl)-1,3-thiazol-4-yl]-5-(3-methoxypyrrolidin-1-yl)pyridine-2-carboxamide]
18 | 2.3 nM | COC1CCN(c2cnc(C(=O)Nc3csc(-c4nncn4[C@@H](C)C(F)(F)F)n3)cc2-n2cnc(C3CC3)c2)CC1 [Compound 30, (S)-4-(4-cyclopropyl-1H-imidazol-1-yl)-5-(4-methoxypiperidin-1-yl)-N-(2-(4-(1,1,1-trifluoropropan-2-yl)-4H-1,2,4-triazol-3-yl)thiazol-4-yl)picolinamide]
19 | 2.9 nM | O=C(Nc1csc(-c2nncn2C2CC2)n1)c1cc(-n2cnc(C3CC3)c2)c(N2CCN(CC(F)(F)F)CC2)cn1 [Compound 13, 4-(4-cyclopropylimidazol-1-yl)-N-[2-(4-cyclopropyl-1,2,4-triazol-3-yl)-1,3-thiazol-4-yl]-5-[4-(2,2,2-trifluoroethyl)piperazin-1-yl]pyridine-2-carboxamide]
20 | 2.2 nM | COC1(C)CCN(c2cnc(C(=O)Nc3csc(-c4nncn4[C@@H](C)C(F)(F)F)n3)cc2-n2cnc(C3CC3)c2)CC1 [Compound 35, (S)-4-(4-cyclopropyl-1H-imidazol-1-yl)-5-(4-methoxy-4-methylpiperidin-1-yl)-N-(2-(4-(1,1,1-trifluoropropan-2-yl)-4H-1,2,4-triazol-3-yl)thiazol-4-yl)picolinamide]
